The values below come from US6858638B2, “Substituted indazoles, compositions containing them, method of production and use” (Aventis Pharma S.A., priority 2002, dated 2005).

Each structure is given as a SMILES string.

Type in all cases: biochemical
Assay [1] has as its target T1, human IGF1R cytoplasmic domain (Homo sapiens, UniProt P08069).
T1 construct: The human IGF1R cytoplasmic domain was cloned; made in house; host or cells: SF21 insect cells (baculovirus)
The assay is described as follows: IGF1R autophosphorylation inhibition, time resolved fluorescence (HTRF) assay. As to conditions: 10 μM; for inhibition at 10 µM: read-out: IGF1R % inhib at 10 μM. A digest of the protocol:
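GST-tagged human IGF1R cytoplasmic domain from SF21 cells incubated with compound in 50 mM Hepes pH 7.5, 5 mM MnCl2, 50 mM NaCl, […] ATP. Autophosphorylation detected by HTRF (Eu-K anti-phosphotyrosine, XL665 anti-GST) after EDTA/KF stop; percentage inhibition versus no-compound control.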

Another assay deals with T2, human FAK (Homo sapiens, UniProt Q05397).
T2 construct: The complete cDNA of human FAK; made in house; host or cells: baculovirus expression system (vector pFastBac HTc)
The assay is described as follows: FAK autophosphorylation inhibition, time resolved fluorescence (HTRF) assay. To be noted: 10 μM (values without asterisk); for inhibition at 10 µM: read-out: FAK % inhib at 10 μM. A digest of the protocol:
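His-tagged full-length human FAK from baculovirus (6.6 µg/ml) self-phosphorylates with 15 µM ATP in HEPES pH 7.2, MgCl2, vanadate, 1 h at 37 °C. HTRF detection (Eu-anti-phosphotyrosine / XL665-anti-His), 665/620 nm ratio; % inhibition vs untreated control, duplicate mean.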
A general note: TR-FRET usually uses a lanthanide donor and a delayed reading to cut background.

The target in the next assay is T3, Aurora2 kinase (Homo sapiens, UniProt O14965).
T3 construct: A complete recombinant Aurora2 enzyme; His tag (N); made in house; host or cells: E. coli
T3 sequence (O14965 1-403): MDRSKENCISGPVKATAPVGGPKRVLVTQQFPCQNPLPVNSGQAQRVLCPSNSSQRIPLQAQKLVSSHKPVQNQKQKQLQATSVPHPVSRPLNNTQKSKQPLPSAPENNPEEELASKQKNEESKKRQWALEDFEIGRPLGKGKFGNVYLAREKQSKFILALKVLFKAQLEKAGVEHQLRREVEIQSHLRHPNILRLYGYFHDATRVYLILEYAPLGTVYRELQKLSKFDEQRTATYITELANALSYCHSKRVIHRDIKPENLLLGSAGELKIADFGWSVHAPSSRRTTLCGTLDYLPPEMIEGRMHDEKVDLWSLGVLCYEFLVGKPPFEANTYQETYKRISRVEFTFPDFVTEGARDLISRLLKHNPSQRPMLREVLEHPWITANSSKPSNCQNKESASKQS
Briefly: Aurora2 kinase radioactivity scintillation assay using nickel chelate (NuMA substrate). As to conditions: 10 μM; for inhibition at 10 µM: read-out: Aurora2 % inhib at 10 μM. In outline: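 His-tagged full-length Aurora2 (0.02 μM, E. coli) phosphorylating His-tagged NuMA C-terminal fragment (0.5 μM) with 1 μM ATP plus [33P]-ATP, 30 min at 37 °C, pH 7.5 Tris buffer with MgCl2. Nickel-chelate scintillation read; percent inhibition versus no-compound control.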

The target of the next assay is T4, human KDR enzyme (Homo sapiens, UniProt P35968).
T4 construct: The cytoplasmic domain of the human KDR enzyme; GST; made in house; host or cells: SF21 insect cells (baculovirus)
The assay is described as follows: KDR substrate (PLCγ) phosphorylation, scintillation assay. To be noted: 10 μM; for inhibition at 10 µM: read-out: KDR % inhib at 10 μM. A digest of the protocol:
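GST-fused human KDR cytoplasmic domain from SF21 cells (about 60% pure, 100 ng) phosphorylated 2 μg of GST-PLCγ SH2-SH3 fragment. The trigger solution held γ33P-ATP with 2 μM cold ATP, in MOPS buffer pH 7.2 with Mg2+, Mn2+, vanadate and NaF. Reactions ran 1 h at 37 °C, were stopped with EDTA and counted by scintillation; results are % inhibition versus the no-compound control.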

T1 sequence (P08069 960-1367 limits assumed): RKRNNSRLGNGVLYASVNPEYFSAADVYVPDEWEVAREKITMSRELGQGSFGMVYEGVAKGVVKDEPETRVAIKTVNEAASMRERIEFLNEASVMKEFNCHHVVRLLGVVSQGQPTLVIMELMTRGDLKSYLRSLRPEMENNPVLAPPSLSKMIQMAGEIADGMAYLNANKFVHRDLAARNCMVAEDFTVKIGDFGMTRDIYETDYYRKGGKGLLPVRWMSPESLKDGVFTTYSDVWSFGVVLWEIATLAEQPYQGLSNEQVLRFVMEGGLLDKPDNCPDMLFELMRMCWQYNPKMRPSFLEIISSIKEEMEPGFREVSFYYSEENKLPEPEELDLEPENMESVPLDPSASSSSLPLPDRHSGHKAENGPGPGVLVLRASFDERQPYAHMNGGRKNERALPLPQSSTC
T4 sequence (P35968 786-1356 limits assumed): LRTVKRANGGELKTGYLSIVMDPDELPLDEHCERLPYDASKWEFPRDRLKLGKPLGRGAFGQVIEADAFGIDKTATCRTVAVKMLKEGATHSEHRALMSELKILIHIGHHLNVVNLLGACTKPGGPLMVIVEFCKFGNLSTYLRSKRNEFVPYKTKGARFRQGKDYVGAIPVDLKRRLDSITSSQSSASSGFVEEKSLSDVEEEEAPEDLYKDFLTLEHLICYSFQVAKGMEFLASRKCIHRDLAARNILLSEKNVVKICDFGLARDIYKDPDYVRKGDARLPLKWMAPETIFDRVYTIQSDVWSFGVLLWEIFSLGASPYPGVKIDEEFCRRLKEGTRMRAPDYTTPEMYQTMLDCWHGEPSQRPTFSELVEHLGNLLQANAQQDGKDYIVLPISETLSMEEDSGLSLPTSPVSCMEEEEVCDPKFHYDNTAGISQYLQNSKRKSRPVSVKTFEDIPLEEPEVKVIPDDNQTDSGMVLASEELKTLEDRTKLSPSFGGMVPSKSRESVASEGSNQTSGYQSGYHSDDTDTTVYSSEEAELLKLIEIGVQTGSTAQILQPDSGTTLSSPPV
T2 sequence (Q05397 whole entry): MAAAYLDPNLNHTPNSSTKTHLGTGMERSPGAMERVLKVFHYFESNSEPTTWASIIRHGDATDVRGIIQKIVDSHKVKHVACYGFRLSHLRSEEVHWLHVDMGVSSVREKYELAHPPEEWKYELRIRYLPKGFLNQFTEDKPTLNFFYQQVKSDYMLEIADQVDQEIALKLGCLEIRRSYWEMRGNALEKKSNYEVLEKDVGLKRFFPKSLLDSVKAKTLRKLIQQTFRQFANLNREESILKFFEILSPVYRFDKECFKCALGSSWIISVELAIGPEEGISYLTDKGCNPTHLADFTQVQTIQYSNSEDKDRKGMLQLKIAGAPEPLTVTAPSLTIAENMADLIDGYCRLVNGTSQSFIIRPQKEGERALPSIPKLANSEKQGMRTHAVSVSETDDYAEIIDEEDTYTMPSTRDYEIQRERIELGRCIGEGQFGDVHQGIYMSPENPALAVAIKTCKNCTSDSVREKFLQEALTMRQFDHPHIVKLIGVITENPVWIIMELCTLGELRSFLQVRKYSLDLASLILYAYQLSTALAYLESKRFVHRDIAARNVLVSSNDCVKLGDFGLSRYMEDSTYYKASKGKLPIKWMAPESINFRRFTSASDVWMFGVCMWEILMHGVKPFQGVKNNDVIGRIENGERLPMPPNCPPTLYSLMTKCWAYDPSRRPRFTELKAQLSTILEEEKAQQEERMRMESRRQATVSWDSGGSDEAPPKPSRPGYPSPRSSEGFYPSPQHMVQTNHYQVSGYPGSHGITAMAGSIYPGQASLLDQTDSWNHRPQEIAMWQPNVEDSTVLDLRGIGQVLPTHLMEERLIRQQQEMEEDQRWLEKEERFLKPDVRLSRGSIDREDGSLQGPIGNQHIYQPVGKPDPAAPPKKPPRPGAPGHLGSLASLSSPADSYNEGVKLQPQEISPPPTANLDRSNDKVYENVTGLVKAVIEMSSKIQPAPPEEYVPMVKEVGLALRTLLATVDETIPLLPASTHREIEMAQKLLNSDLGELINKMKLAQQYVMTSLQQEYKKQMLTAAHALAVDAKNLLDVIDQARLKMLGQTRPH

Consider `CS(=O)(=O)c1ccccc1S(=O)(=O)Nc1ccc2[nH]nc(-c3ccccc3Cl)c2c1` [Example 187, N-[3-(2-Chlorophenyl)-1H-indazol-5-yl]-2-methanesulfonyl-benzenesulfonamide], for which the inhibition at 10 µM in assay [1] was 52%; at human FAK, 46%; on Aurora2 kinase, 67%; at human KDR enzyme, 49%.

As for `O=S(=O)(Nc1ccc2[nH]nc(-c3ccccc3)c2c1)c1cccc2ccccc12` [Example 106, N-(3-Phenyl-1H-indazol-5-yl)-naphthalene-1-sulfonamide], the inhibition at 10 µM came to 90% in assay [1], 43% on human FAK, 92% on Aurora2 kinase and 79% at human KDR enzyme.

Regarding `O=C(Nc1n[nH]c2ccc(NS(=O)(=O)c3cc(F)cc(F)c3)cc12)c1ccccc1` [Example 46, N-[5-(3,5-Difluorobenzenesulfonylamino)-1H-indazol-3-yl]benzamide], the inhibition at 10 µM in assay [1] came out at 82%; on human FAK, 90%; on Aurora2 kinase, 95%; on human KDR enzyme, 82%.

Turning to `CS(=O)(=O)c1ccccc1S(=O)(=O)Nc1ccc2[nH]nc(-c3ccc(Br)cc3)c2c1` [Example 161, N-[3-(4-Bromophenyl)-1H-indazol-5-yl]-2-methanesulfonyl-benzenesulfonamide], the inhibition at 10 µM in assay [1] turned out to be 75%; at human FAK it was 61%; at Aurora2 kinase, 89%; on human KDR enzyme, 65%.

Take `CS(=O)(=O)c1ccccc1S(=O)(=O)Nc1ccc2[nH]nc(-c3cccc(O)c3)c2c1` [Example 200, N-[3-(3-Hydroxyphenyl)-1H-indazol-5-yl]-2-methanesulfonyl-benzenesulfonamide]: the inhibition at 10 µM turned out to be 73% in assay [1], 93% on human FAK, 94% at Aurora2 kinase and 64% at human KDR enzyme.

As to `CS(=O)(=O)c1ccccc1S(=O)(=O)Nc1ccc2[nH]nc(-c3cc(Cl)ccc3Cl)c2c1` [Example 225, N-[3-(2,5-Dichlorophenyl)-1H-indazol-5-yl]-2-methanesulfonyl-benzenesulfonamide], the inhibition at 10 µM in assay [1] was 27%; on human FAK it was 51%; on Aurora2 kinase it was 49%; on human KDR enzyme, 12%.

In the case of `CC(=O)Nc1n[nH]c2ccc(NS(=O)(=O)c3ccccc3S(C)(=O)=O)cc12` [Example 43, N-[5-(2-Methylsulfonylbenzenesulfonylamino)-1H-indazol-3-yl)-acetamide], the inhibition at 10 µM in assay [1] was found to be 96%; on human FAK it was 83%; on Aurora2 kinase it was 85%; at human KDR enzyme, 25%.

For the compound `CC(C)c1cc(C(C)C)c(S(=O)(=O)Nc2ccc3[nH]nc(-c4ccccc4)c3c2)c(C(C)C)c1` [Example 114, 2,4,6-Triisopropyl-N-(3-phenyl-1H-indazol-5-yl)-benzenesulfonamide], the inhibition at 10 µM in assay [1] stood at 50%; at human FAK, 48%; at Aurora2 kinase it was 98%; on human KDR enzyme, 90%.

As to `CS(=O)(=O)c1ccccc1S(=O)(=O)Nc1ccc2[nH]nc(-c3cccc(OCc4ccccc4)c3)c2c1` [Example 223, N-[3-(3-Benzyloxyphenyl)-1H-indazol-5-yl]-2-methanesulfonyl-benzenesulfonamide], the inhibition at 10 µM was 0% in assay [1], 70% at human FAK, 31% on Aurora2 kinase and 23% at human KDR enzyme.

Take `CS(=O)(=O)c1ccccc1S(=O)(=O)Nc1ccc2[nH]nc(-c3cccc(Br)c3)c2c1` [Example 184, N-[3-(3-Bromophenyl)-1H-indazol-5-yl]-2-methanesulfonyl-benzenesulfonamide]: the inhibition at 10 µM is 73% in assay [1], 96% on human FAK, 93% at Aurora2 kinase and 61% at human KDR enzyme.

Turning to `N#Cc1ccccc1S(=O)(=O)Nc1ccc2[nH]nc(-c3ccccc3)c2c1` [Example 144, 2-Cyano-N-(3-phenyl-1H-indazol-5-yl)-benzenesulfonamide], the inhibition at 10 µM came to 69% in assay [1], 70% at human FAK, 100% on Aurora2 kinase and 72% at human KDR enzyme.

Turning to `CS(=O)(=O)c1ccccc1S(=O)(=O)Nc1ccc2[nH]nc(-c3cc(Cl)cc(Cl)c3)c2c1` [Example 168, N-[3-(3,5-Dichlorophenyl)-1H-indazol-5-yl]-2-methanesulfonyl-benzenesulfonamide], the inhibition at 10 µM turned out to be 50% in assay [1], 95% at human FAK, 87% on Aurora2 kinase and 49% at human KDR enzyme.

On to `CS(=O)(=O)c1ccccc1S(=O)(=O)Nc1ccc2[nH]nc(-c3ccc(OC(F)(F)F)cc3)c2c1` [Example 206, N-[3-(4-Trifluoromethoxy-phenyl)-1H-indazol-5-yl]-2-methanesulfonyl-benzenesulfonamide], for which the inhibition at 10 µM in assay [1] was 61%; at human FAK it was 58%; on Aurora2 kinase, 85%; on human KDR enzyme, 48%.

Turning to `CS(=O)(=O)c1ccccc1S(=O)(=O)Nc1ccc2[nH]nc(NC(=O)c3ccccc3)c2c1` [Example 45, N-[5-(2-Methylsulfonylbenzenesulfonylamino)-1H-indazol-3-yl]benzamide], the inhibition at 10 µM stood at 95% in assay [1], 100% at human FAK, 95% on Aurora2 kinase and 55% at human KDR enzyme.

Consider `Cc1ccccc1-c1n[nH]c2ccc(NS(=O)(=O)c3ccccc3S(C)(=O)=O)cc12` [Example 105, 2-Methylsulfonyl-N-(3-o-tolyl-1H-indazol-5-yl)benzenesulfonamide], for which the inhibition at 10 µM is 25% in assay [1], 71% at human FAK, 49% at Aurora2 kinase and 28% at human KDR enzyme.

Take `CS(=O)(=O)c1ccccc1S(=O)(=O)Nc1ccc2[nH]nc(-c3ccc(F)c(F)c3)c2c1` [Example 192, N-[3-(3,4-Difluorophenyl)-1H-indazol-5-yl]-2-methanesulfonyl-benzenesulfonamide]: the inhibition at 10 µM came to 72% in assay [1], 90% on human FAK, 89% at Aurora2 kinase and 47% on human KDR enzyme.

Take `CS(=O)(=O)c1ccccc1S(=O)(=O)Nc1ccc2[nH]nc(-c3ccccc3F)c2c1` [Example 188, N-[3-(2-Fluorophenyl)-1H-indazol-5-yl]-2-methanesulfonyl-benzenesulfonamide]: the inhibition at 10 µM in assay [1] was 61%; at human FAK, 91%; at Aurora2 kinase, 74%; at human KDR enzyme, 64%.

In the case of `CS(=O)(=O)c1ccccc1S(=O)(=O)Nc1ccc2[nH]nc(-c3ccc(O)cc3)c2c1` [Example 35, N-[3-(4-Hydroxyphenyl)-1H-indazol-5-yl]-2-methylsulfonylbenzenesulfonamide], the “IGF1R % inhib at 10 μM” value in assay [1] is given as 94%. Moreover, the “FAK % inhib at 10 μM” value at human FAK amounted to 97%. Also, the “Aurora2 % inhib at 10 μM” value on Aurora2 kinase is listed as 94%. Besides, at human KDR enzyme, the “KDR % inhib at 10 μM” value was found to be 80%.

With `CS(=O)(=O)c1ccccc1S(=O)(=O)Nc1ccc2[nH]nc(-c3ccc(OCc4ccccc4)cc3)c2c1` [Example 209, N-[3-(4-Benzyloxyphenyl)-1H-indazol-5-yl]-2-methanesulfonyl-benzenesulfonamide], the inhibition at 10 µM in assay [1] was 16%; on human FAK, 55%; at Aurora2 kinase it was 67%; on human KDR enzyme, 34%.

As to `CS(=O)(=O)c1ccccc1S(=O)(=O)Nc1ccc2[nH]nc(Nc3ccccc3)c2c1` [Example 83, 2-Methylsulfonyl-N-(3-phenylamino-1H-indazol-5-yl)-benzenesulfonamide], the inhibition at 10 µM in assay [1] was 100%; on human FAK, 92%; at Aurora2 kinase, 93%; on human KDR enzyme, 60%.
